From patent US20260217701A1, “SELECTIVE BET INHIBITORS AND USES THEREOF” (Tay Therapeutics Limited, priority 2022, published 2026)
Where two headings read alike, the source gives them in different places.

Experiment: Rat PK study #3 (ABBV-744 IV 1 mg/kg and PO 5 mg/kg)
Format: in vivo, SD rats
Details: male, Sprague-Dawley, rat, plasma, SD rats, DMSO/PEG-400/Milli-Q water formulation; for C0: read-out: C0; for MRT inf: read-out: MRTInf_obs; for Tmax: read-out: Tmax
Procedure: For the third rat pharmacokinetic study, the pharmacokinetics of ABBV-744 were assessed in male SD rats for comparison to Compound A. ABBV-744 was prepared in a formulation of 5% DMSO, 40% PEG-400, and 55% Milli-Q water (see Table 2D for formulation) and delivered to animals orally (PO) at a dose of 5 mg/kg, or intravenously (IV) at a dose of 1 mg/kg. Animals in each group (n=3) were then monitored over a 24-hour period.
Blood samples (~0.2 mL) were collected according to a schedule (IV administration: 0.033, 0.083, 0.25, 0.5, 1, 2, 4, and 8 h following the initial dosing; PO administration: 0.083, 0.25, 0.5, 1, 2, 4, 8, and 24 h following the initial dosing) by jugular vein by cannulation except for the dosing vein (for IV group), and EDTA-K2 was used as anticoagulant. Within 30 minutes of collection, the samples were centrifuged at approximately 4000 times g-force for 5 minutes at 4° C. to obtain blood plasma. The plasma samples were immediately divided into two aliquots (~75 µL each), transferred to a cryogenic vial, and stored in a freezer at −75±15° C. prior to analysis.
The concentration of ABBV-744 in plasma samples was determined by liquid chromatography-mass spectrometry (LC-MS/MS) using a Shimadzu HPLC(DGU-405; LC-40D XS CN; SIL-40C XSCN; Plate Changer CN; CTO-40C CN; and CBM-40 CN) and an AB API 5500+LC/MS/MS instrument. Samples were analyzed on an Agilent Poroshell Bonus RP 2.7 μm (50×2.1 mm) column. Solution A in the mobile phase was 95% water (0.1% formic acid) and solution B was 95% acetonitrile in water (0.1% formic acid), injection volume was 6 μL, and flow rate was 0.6 mL/min.
To prepare samples for analysis, serial concentrations were prepared by diluting the stock solution of analyte with a 50% acetonitrile in water solution. 5 μL working solutions (5, 10, 20, 50, 100, 500, 1000, 5000, and 10000 ng/mL) were added to 50 μL of the blank SD rat plasma to achieve calibration standards of ~0.5 to 1000 ng/ml (0.5, 1, 2, 5, 10, 50, 100, 500, and 1000 ng/ml) in a total volume of 55 μL. Five quality control samples at 1 ng/ml, 2 ng/ml, 5 ng/ml, 50 ng/mL, and 800 ng/ml for plasma were prepared independently of those used for the calibration curves. These QC samples were prepared on the day of analysis in the same way as calibration standards.
55 μL of standards, 55 μL of QC samples and 55 μL of unknown samples (50 μL of unknown rat plasma with 5 µL of blank solution) were added to 200 µL of acetonitrile containing IS mixture (verapamil) for precipitating protein respectively. The samples were then vortexed for 30 s. After centrifugation at 4° C., 3900 rpm for 15 min, the supernatant was diluted 3 times with water. 6 μL of diluted supernatant was injected into the LC/MS/MS system for quantitative analysis.

[1] = iv, 1 mg/kg, IV 1 mg/kg, individual animals
[2] = iv, 1 mg/kg, IV 1 mg/kg, mean of 3 animals
[3] = po, 5 mg/kg, PO 5 mg/kg, mean of 3 animals

concentration at 0.083 h [1]: 351 ng/mL
concentration at 0.083 h [2]: 337 ng/mL
concentration at 0.25 h [1]: 248 ng/mL
concentration at 0.25 h [2]: 268 ng/mL
concentration at 0.5 h [1]: 191 ng/mL
concentration at 0.5 h [2]: 203 ng/mL
concentration at 1 h [1]: 158 ng/mL
concentration at 1 h [2]: 154 ng/mL
concentration at 2 h [1]: 103 ng/mL
concentration at 2 h [2]: 110 ng/mL
concentration at 4 h [1]: 48 ng/mL
concentration at 4 h [2]: 52.9 ng/mL
concentration at 8 h [1]: 12.6 ng/mL
concentration at 8 h [2]: 15.3 ng/mL
AUC(0-inf) [1]: 669 ng·h/mL
AUC(0-t) [1]: 633 ng·h/mL
half-life [1]: 1.99 h
C0 [1]: 580 ng/mL
MRT inf [1]: 2.47 h
AUC(0-inf) [2]: 716 ng·h/mL
AUC(0-t) [2]: 668 ng·h/mL
half-life [2]: 2.12 h
C0 [2]: 613 ng/mL
MRT inf [2]: 2.65 h
concentration at 0.083 h [3]: 1.61 ng/mL
concentration at 0.25 h [3]: 19.3 ng/mL
concentration at 0.5 h [3]: 43 ng/mL
concentration at 1 h [3]: 59 ng/mL
concentration at 2 h [3]: 89 ng/mL
concentration at 4 h [3]: 127 ng/mL
concentration at 8 h [3]: 113 ng/mL
concentration at 24 h (po, 5 mg/kg, PO 5 mg/kg, 24 h, mean of 3 animals): 2.17 ng/mL
Tmax (po, 5 mg/kg, PO 5 mg/kg, individual animals): 8 h
AUC(0-t) [3]: 1730 ng·h/mL
Cmax (po, 5 mg/kg, PO 5 mg/kg, mean of 3 animals, read-out: Cmax): 132 ng/mL
Tmax [3]: 5.33 h
SMILES: CCNC(=O)c1cc2c(-c3cc(C(C)(C)O)ccc3Oc3c(C)cc(F)cc3C)cn(C)c(=O)c2[nH]1 [ABBV-744]
